Laboratory results as given in patent US20250268873A1, “COMBINATION OF DUAL ATM AND DNA-PK INHIBITORS AND IMMUNOTHERAPEUTIC AGENTS FOR USE IN CANCER THERAPY” (XRAD THERAPEUTICS, INC., priority 2021, published 2025).

Test system: TBK1
Test: Immunoblot of TBK1 phosphorylation in HCT116 cells
Type: cell-based, human
Conditions: HCT116 p53 wild-type and p53−/− cells; 1 μM single agents, combination 0.5 or 1 micromolar each
Text: Antibodies recognizing phosphorylated/activated ATM (S1981, #ab81292) and DNA-PKcs (S2056, #ab18192) were purchased from Abcam Biotechnology (Cambridge, MA). Antibodies to ATM (#A1106) and DNA-PKcs (#ab1832) were from Sigma and Abcam, respectively. Phospho-KAP1 (S824, #A300-767A) and KAP1 (A700-014) antibodies were from Bethyl Labs (Montgomery, TX). Phospho-TBK1 (#5483), cGAS (#15102), and pSTING (S366, #19781S) antibodies were from Cell Signaling Technology (CST) (Danvers, MA). STING (PA5-23381) antibodies were from ThermoFisher Scientific (Waltham, MA), and actin (#A5316) antibodies were from Sigma. All antibodies were diluted 1:1000 with the exception of actin which was diluted 1:3000 in 1×TBST (1×TBS-10×TBS, (Corning, 46-012-CM), 0.05% Tween-20 (P7949) Sigma and 1% BSA. Secondary antibodies used were (a) Li-Cor method-Goat anti-Rabbit (926-3221) and Goat anti-Mouse (926-68020) Li-Cor (b) ECL method: Anti-rabbit IgG, HRP-linked (#7074S), CST.
Cells were pretreated with Compound 569 at 20, 100, 500, or 1000 nM or DMSO for 30 min and then irradiated with 0 or 10 Gy (XRAD 160, Precision X Ray) as shown in FIG. 1. In FIG. 3, cells were pretreated with Compound 569 at 1 μM, ATMi (AZD0156) at 1 μM, DNA-PKi (peposertib) at 1 μM as single agents or DMSO or with ATMi and DNA-PKi in combination at 0.5 micromolar each or at 1 micromolar each for 30 min and then irradiated with 0 or 10 Gy (XRAD 160, Precision X Ray) as shown in FIG. 1. One hour after IR, cells were lysed in RIPA buffer ([…], pH 8.0, 150 mM NaCl, 0.1% SDS, 0.5% sodium deoxycholate, 1% IGEPAL® CA-630 (Sigma, 18896) for 20 min at 4° C. in the presence of protease and phosphatase inhibitor cocktails (Roche, #04693159001 & #04906837001). Cell lysates were centrifuged at 13,200 g for 10 min at 4° C. and supernatants were analyzed for protein content using BCA assay (Pierce™ BCA Protein Assay Kit, cat #23227, ThermoFisher Waltham, MA 02451) and equal amounts of protein/lane were used for subsequent immunoblot analyses. Proteins were denatured by adding NuPAGE LSD Sample Buffer [4×] […]

How did the “phosphorylation of TBK1” value turn out when `CC(C)NCCOc1ncc(-c2cc3c4c(cnc3cc2F)N(C)C(=O)C42CCC2)cc1NS(C)(=O)=O` [Compound 569, N-(5-(7′-Fluoro-3′-methyl-2′-oxo-2′,3′-dihydrospiro[cyclobutane-1,1′-pyrrolo[2,3-c]quinolin]-8′-yl)-2-(2-(isopropylamino)ethoxy)pyridin-3-yl)methanesulfonamide] was run?
Its value is “more potent activator of TBK1 phosphorylation than either of the single target kinase inhibitors”.
